Reference: patent US10172358B2, “Thiopicolinamide compounds with fungicidal activity” (Dow AgroSciences LLC, priority 2016, dated 2019)
Where two headings read alike, the source gives them in different places.

Legend:
Puccinia triticina = assay: Fungicidal activity: wheat brown rust (PUCCRT), disease control on wheat seedlings; assay type: in vivo, Puccinia triticina on wheat plants (variety Yuma); details: for pest or weed control at 100 ppm: high volume application; for pest or weed control at 121.5 g/ha: low volume application, 121.5 g/H
Protocol: Technical grades of materials were dissolved in acetone, which were then mixed with nine volumes of water (H2O) containing 110 ppm Triton X-100. The fungicide solutions were applied onto wheat seedlings using an automated booth sprayer to run-off. All sprayed plants were allowed to air dry prior to further handling. All fungicides were evaluated using the aforementioned method for their activity vs. all target diseases, unless stated otherwise. Wheat leaf blotch and brown rust activity were also evaluated using track spray applications, in which case the fungicides were formulated as EC formulations, containing 0.1% Trycol 5941 in the spray solutions. Evaluation of Fungicidal Activity: Wheat Brown Rust (Puccinia triticina; Synonym: Puccinia recondita f. Sp. Tritici; Bayer Code PUCCRT) Wheat plants (variety Yuma) were grown from seed in a greenhouse in 50% mineral soil/50% soil-less Metro mix until the first leaf was fully emerged, with 7-10 seedlings per pot. These plants were inoculated with an aqueous spore suspension of Puccinia triticina either prior to or after fungicide treatments. After inoculation the plants were kept in a dark dew room at 22° C. with 100% relative humidity overnight to permit spores to germinate and infect the leaf. The plants were then transferred to a greenhouse set at 24° C. for disease to develop. Fungicide formulation, application and disease assessment followed the procedures as described in the Example A. The results of the evalution are shown below in Table 4.

Zymoseptoria tritici = assay: Fungicidal activity: leaf blotch of wheat (SEPTTR), disease control on wheat seedlings; assay type: in vivo, Zymoseptoria tritici on wheat plants (variety Yuma); details: for pest or weed control at 100 ppm: high volume application; for pest or weed control at 121.5 g/ha: low volume application, 121.5 g/H
Protocol: Evaluation of Fungicidal Activity: Leaf Blotch of Wheat (Zymoseptoria Tritici; Bayer Code […]) Technical grades of materials were dissolved in acetone, which were then mixed with nine volumes of water (H2O) containing 110 ppm Triton X-100. The fungicide solutions were applied onto wheat seedlings using an automated booth sprayer to run-off. All sprayed plants were allowed to air dry prior to further handling. All fungicides were evaluated using the aforementioned method for their activity vs. all target diseases, unless stated otherwise. Wheat leaf blotch and brown rust activity were also evaluated using track spray applications, in which case the fungicides were formulated as EC formulations, containing 0.1% Trycol 5941 in the spray solutions. Wheat plants (variety Yuma) were grown from seed in a greenhouse in 50% mineral soil/50% soil-less Metro mix until the first leaf was fully emerged, with 7-10 seedlings per pot. These plants were inoculated with an aqueous spore suspension of Zymoseptoria tritici either prior to or after fungicide treatments. After inoculation the plants were kept in 100% relative humidity (one day in a dark dew chamber followed by two to three days in a lighted dew chamber at 20° C.) to permit spores to germinate and infect the leaf. The plants were then transferred to a greenhouse set at 20° C. for disease to develop. When disease symptoms were fully expressed on the 1st leaves of untreated plants, infection levels were assessed on a scale of 0 to 100 percent disease severity. Percent disease control was calculated using the ratio of disease severity on treated plants relative to untreated plants.

Phakopsora pachyrhizi = assay: Fungicidal activity: Asian soybean rust (PHAKPA), disease control on soybean seedlings; assay type: in vivo
Protocol: Evaluation of Fungicidal Activity: Asian Soybean Rust (Phakopsora Pachyrhizi; Bayer Code PHAKPA)
Technical grades of materials were dissolved in acetone, which were then mixed with nine volumes of H2O containing 0.011% Tween 20. The fungicide solutions were applied onto soybean seedlings using an automated booth sprayer to run-off. All sprayed plants were allowed to air dry prior to further handling.
Soybean plants (variety Williams 82) were grown in soil-less Metro mix, with one plant per pot. Two weeks old seedlings were used for testing. Plants were inoculated either 3 days prior to or 1 day after fungicide treatments. Plants were incubated for 24 h in a dark dew room at 22° C. and 100% relative humidity then transferred to a growth room at 23° C. for disease to develop. Disease severity was assessed on the sprayed leaves.

[1] = 24 h, 1 day protectant, read-out: PUCCRT 1DP disease control, HV activity at 100 ppm
[2] = 72 h, 3 day curative, read-out: PUCCRT 3DC disease control, HV activity at 100 ppm
[3] = 24 h, 1 day protectant, read-out: SEPTTR 1DP disease control, HV activity at 100 ppm
[4] = 72 h, 3 day curative, read-out: SEPTTR 3DC disease control, HV activity at 100 ppm
[5] = 72 h, 3 day curative, read-out: PUCCRT 3DC disease control, LV activity at 121.5 g/H
[6] = 24 h, 1 day protectant, read-out: PHAKPA 1DP disease control at 25 ppm
[7] = 24 h, 1 day protectant, read-out: PUCCRT 1DP disease control, LV activity at 121.5 g/H
[8] = 24 h, 1 day protectant, read-out: SEPTTR 1DP disease control, LV activity at 121.5 g/H
[9] = 72 h, 3 day curative, read-out: SEPTTR 3DC disease control, LV activity at 121.5 g/H
[10] = 72 h, 3 day curative, read-out: PHAKPA 3DC disease control at 25 ppm

| melting point | Compound | pest or weed control at 100 ppm (Puccinia triticina; [1]) | pest or weed control at 100 ppm (Puccinia triticina; [2]) | pest or weed control at 100 ppm (Zymoseptoria tritici; [3]) | pest or weed control at 100 ppm (Zymoseptoria tritici; [4]) | pest or weed control at 121.5 g/ha (Puccinia triticina; [5]) | pest or weed control at 25 ppm (Phakopsora pachyrhizi; [6]) | pest or weed control at 121.5 g/ha (Puccinia triticina; [7]) | pest or weed control at 121.5 g/ha (Zymoseptoria tritici; [8]) | pest or weed control at 121.5 g/ha (Zymoseptoria tritici; [9]) | pest or weed control at 25 ppm (Phakopsora pachyrhizi; [10]) |
| --- | --- | --- | --- | --- | --- | --- | --- | --- | --- | --- | --- |
| 59 to 75 °C | COc1cc(F)ccc1C(c1ccc(F)cc1OC)[C@H](C)OC(=O)[C@H](C)NC(=S)c1nccc(OC)c1O [Compound 23] | > 80% | ≤ 80% | > 80% | > 80% | – | – | – | – | – | – |
| 54 to 70 °C | COc1cc(F)ccc1[C@@H](c1ccc(F)cc1)[C@H](C)OC(=O)[C@H](C)NC(=S)c1nccc(OC)c1O [Compound 24] | > 80% | ≤ 80% | > 80% | > 80% | – | – | – | – | – | – |
| 80 to 86 °C | CC[C@H](OC(=O)[C@H](C)NC(=S)c1nccc(OC)c1O)[C@@H](C)Oc1ccccc1 [Compound 25] | ≤ 80% | – | – | – | – | – | – | – | – | – |
| 53 to 64 °C | COc1ccnc(C(=S)N[C@H](C)C(=O)O[C@H](C)C(c2ccc(F)cc2)c2ccc(F)cc2)c1O [Compound 28] | – | – | – | – | – | – | – | – | – | – |
| – | COc1ccnc(C(=S)N[C@@H](C)C(=O)O[C@H](CC(C)C)[C@H](C)Oc2ccccc2)c1OC(C)=O [Compound 40] | – | – | – | – | ≤ 80% | ≤ 80% | – | – | – | – |
| – | COc1ccnc(C(=S)N[C@@H](C)C(=O)O[C@H](C(C)C)[C@H](C)Oc2ccccc2)c1OC(C)=O [Compound 61] | – | – | – | – | > 80% | > 80% | > 80% | ≤ 80% | > 80% | > 80% |
| – | CCC[C@@H](Oc1ccc(C)cc1)[C@H](C)OC(=O)[C@H](C)NC(=S)c1nccc(OC)c1OC(C)=O [Compound 62] | – | – | – | – | > 80% | ≤ 80% | > 80% | ≤ 80% | – | ≤ 80% |
| – | COc1ccnc(C(=S)N[C@@H](C)C(=O)O[C@@H](C)C(c2ccc(F)cc2F)c2ccc(F)cc2F)c1OC(C)=O [Compound 63] | – | – | – | – | ≤ 80% | > 80% | > 80% | > 80% | > 80% | ≤ 80% |
| – | COc1ccnc(C(=S)N[C@@H](C)C(=O)O[C@@H](C)[C@@H](c2ccc(F)cc2)c2ccc(F)cc2C)c1OC(C)=O [Compound 64] | – | – | – | – | ≤ 80% | > 80% | > 80% | > 80% | > 80% | > 80% |
| – | COc1cc(C)ccc1C(c1ccc(C)cc1OC)[C@H](C)OC(=O)[C@H](C)NC(=S)c1nccc(OC)c1OC(C)=O [Compound 65] | – | – | – | – | > 80% | > 80% | > 80% | > 80% | > 80% | ≤ 80% |
| – | CC[C@H](OC(=O)[C@H](C)NC(=S)c1nccc(OC)c1OC(C)=O)[C@@H](C)Oc1ccccc1 [Compound 66] | – | – | – | – | ≤ 80% | ≤ 80% | ≤ 80% | – | – | ≤ 80% |
| – | COc1cc(F)ccc1C(c1ccc(F)cc1OC)[C@H](C)OC(=O)[C@H](C)NC(=S)c1nccc(OC)c1OC(C)=O [Compound 67] | – | – | – | – | ≤ 80% | > 80% | > 80% | > 80% | > 80% | ≤ 80% |
| – | COc1ccnc(C(=S)N[C@H](C)C(=O)O[C@H](C)C(c2ccc(F)cc2)c2ccc(F)cc2)c1OC(C)=O [Compound 68] | – | – | – | – | ≤ 80% | ≤ 80% | – | ≤ 80% | – | – |
| – | COc1ccnc(C(=S)N[C@@H](C)C(=O)O[C@@H](C(C)C)[C@@H](C)Oc2ccccc2)c1OC(C)=O [Compound 69] | – | – | – | – | ≤ 80% | ≤ 80% | ≤ 80% | – | ≤ 80% | – |
| – | COc1cc(F)ccc1[C@@H](c1ccc(F)cc1)[C@H](C)OC(=O)[C@H](C)NC(=S)c1nccc(OC)c1OC(C)=O [Compound 70] | – | – | – | – | > 80% | > 80% | > 80% | > 80% | > 80% | ≤ 80% |
| – | COc1ccnc(C(=S)N[C@@H](C)C(=O)O[C@@H](C)[C@H](Oc2ccc(Cl)cc2)C2CCCC2)c1OC(C)=O [Compound 71] | – | – | – | – | > 80% | ≤ 80% | > 80% | > 80% | ≤ 80% | – |
| – | COc1ccnc(C(=S)N[C@@H](C)C(=O)O[C@@H](C)[C@@H](c2ccccc2)c2ccc(F)cc2C)c1OC(C)=O [Compound 72] | – | – | – | – | > 80% | > 80% | > 80% | > 80% | > 80% | > 80% |
| – | COc1ccnc(C(=S)N[C@@H](C)C(=O)O[C@H](C(C)C)[C@H](C)Oc2ccc(F)cc2)c1OC(C)=O [Compound 73] | – | – | – | – | > 80% | > 80% | > 80% | > 80% | > 80% | > 80% |
| – | COc1ccnc(C(=S)N[C@@H](C)C(=O)O[C@@H](C)[C@H](Oc2ccccc2)c2ccc(F)cc2C)c1OC(C)=O [Compound 74] | – | – | – | – | ≤ 80% | ≤ 80% | > 80% | > 80% | > 80% | ≤ 80% |
| – | COc1ccnc(C(=S)N[C@@H](C)C(=O)O[C@@H](C)[C@H](Oc2ccccc2)c2ccc(F)cc2Cl)c1OC(C)=O [Compound 75] | – | – | – | – | ≤ 80% | ≤ 80% | > 80% | > 80% | > 80% | ≤ 80% |
| – | CCC[C@H](OC(=O)[C@H](C)NC(=S)c1nccc(OC)c1OC(C)=O)[C@@H](C)Oc1ccccc1 [Compound 76] | – | – | – | – | – | ≤ 80% | – | – | – | – |
| – | COc1ccnc(C(=S)N[C@@H](C)C(=O)O[C@@H](C)[C@H](Oc2cccc(F)c2)C(C)C)c1OC(C)=O [Compound 77] | – | – | – | – | > 80% | > 80% | > 80% | ≤ 80% | > 80% | ≤ 80% |
| – | COc1ccnc(C(=S)N[C@@H](C)C(=O)O[C@@H](C)C(c2ccc(F)cc2)c2ccc(F)cc2)c1OC(C)=O [Compound 78] | – | – | – | – | ≤ 80% | ≤ 80% | > 80% | > 80% | > 80% | – |
